Experimental data taken from ChEMBL document CHEMBL1156685, “Synthesis and structure-activity relationships of N-6 substituted analogues of 9-hydroxy-4-phenylpyrrolo[3,4-c]carbazole-1,3(2H,6H)-diones as inhibitors of Wee1 and Chk1 checkpoint kinases” (Eur J Med Chem, 2008).
Converted amounts (≈) assume the structure as drawn.

How the values were obtained:
[1] = target: Proto-oncogene tyrosine-protein kinase Src (Homo sapiens, UniProt P12931)
physchem = details: buffer
Description: Aqueous solubility of the compound

[2] = target: Cyclin-dependent kinase 1/cyclin B1 (Homo sapiens, UniProt P06493); assay type: cell-based, HT-29
Description: Inhibition of Cdc2/cyclin B assessed as inhibition of histone H1 phosphorylation in human HT29 cells

[3] = target: Cyclin-dependent kinase 1 (Homo sapiens, UniProt P06493); assay type: cell-based; details: ht-29
Description: Inhibition of Cdc2 Tyr15 phosphorylation in human HT29 cells by Western blot

Wee1-like protein kinase = Wee1-like protein kinase (Homo sapiens, UniProt P30291)
Chain of Wee1-like protein kinase (P30291 whole entry): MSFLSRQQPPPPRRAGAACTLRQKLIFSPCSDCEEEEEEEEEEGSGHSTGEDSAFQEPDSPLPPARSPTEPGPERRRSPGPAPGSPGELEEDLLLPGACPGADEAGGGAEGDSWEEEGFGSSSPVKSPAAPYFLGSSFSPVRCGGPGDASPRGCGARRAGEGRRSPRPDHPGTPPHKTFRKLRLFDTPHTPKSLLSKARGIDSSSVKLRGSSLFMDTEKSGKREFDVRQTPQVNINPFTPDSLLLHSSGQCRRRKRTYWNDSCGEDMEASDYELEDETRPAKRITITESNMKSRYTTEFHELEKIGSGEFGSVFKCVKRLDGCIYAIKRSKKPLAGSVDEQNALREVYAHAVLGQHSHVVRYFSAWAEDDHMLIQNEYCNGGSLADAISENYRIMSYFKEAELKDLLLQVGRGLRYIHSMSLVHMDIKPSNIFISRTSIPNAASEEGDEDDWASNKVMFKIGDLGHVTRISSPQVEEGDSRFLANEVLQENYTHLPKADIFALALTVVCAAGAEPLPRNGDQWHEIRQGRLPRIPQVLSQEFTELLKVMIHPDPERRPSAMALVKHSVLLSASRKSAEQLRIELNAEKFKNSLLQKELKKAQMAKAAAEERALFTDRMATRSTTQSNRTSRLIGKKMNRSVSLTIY
Description: Inhibition of human Wee1 assessed as polyornithine-tyrosine copolymer phosphorylation

Chain of Proto-oncogene tyrosine-protein kinase Src (P12931 2-536 limits assumed): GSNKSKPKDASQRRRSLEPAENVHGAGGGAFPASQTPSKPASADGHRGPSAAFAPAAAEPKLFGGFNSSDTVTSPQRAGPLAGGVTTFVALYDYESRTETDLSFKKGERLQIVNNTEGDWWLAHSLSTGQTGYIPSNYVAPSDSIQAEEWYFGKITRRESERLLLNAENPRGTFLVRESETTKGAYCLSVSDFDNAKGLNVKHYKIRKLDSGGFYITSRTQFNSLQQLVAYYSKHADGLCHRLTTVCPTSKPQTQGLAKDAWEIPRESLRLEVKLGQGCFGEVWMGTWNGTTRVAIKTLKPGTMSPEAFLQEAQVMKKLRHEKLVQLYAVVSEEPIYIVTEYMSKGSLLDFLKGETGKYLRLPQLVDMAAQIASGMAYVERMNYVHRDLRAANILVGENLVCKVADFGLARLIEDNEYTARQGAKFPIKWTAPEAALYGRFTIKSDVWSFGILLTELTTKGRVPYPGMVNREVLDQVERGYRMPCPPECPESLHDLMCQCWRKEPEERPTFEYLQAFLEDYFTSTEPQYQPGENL
Chain of Cyclin-dependent kinase 1/cyclin B1 (P06493 whole entry): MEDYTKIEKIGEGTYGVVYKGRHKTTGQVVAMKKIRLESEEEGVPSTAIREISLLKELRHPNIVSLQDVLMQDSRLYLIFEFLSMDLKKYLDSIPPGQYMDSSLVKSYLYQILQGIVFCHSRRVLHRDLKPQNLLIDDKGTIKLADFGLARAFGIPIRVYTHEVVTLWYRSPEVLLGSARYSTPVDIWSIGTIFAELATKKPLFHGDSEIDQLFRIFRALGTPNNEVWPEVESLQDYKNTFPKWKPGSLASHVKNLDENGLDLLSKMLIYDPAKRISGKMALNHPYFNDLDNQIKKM
Chain of Cyclin-dependent kinase 1/cyclin B1 (P14635 whole entry, further chain): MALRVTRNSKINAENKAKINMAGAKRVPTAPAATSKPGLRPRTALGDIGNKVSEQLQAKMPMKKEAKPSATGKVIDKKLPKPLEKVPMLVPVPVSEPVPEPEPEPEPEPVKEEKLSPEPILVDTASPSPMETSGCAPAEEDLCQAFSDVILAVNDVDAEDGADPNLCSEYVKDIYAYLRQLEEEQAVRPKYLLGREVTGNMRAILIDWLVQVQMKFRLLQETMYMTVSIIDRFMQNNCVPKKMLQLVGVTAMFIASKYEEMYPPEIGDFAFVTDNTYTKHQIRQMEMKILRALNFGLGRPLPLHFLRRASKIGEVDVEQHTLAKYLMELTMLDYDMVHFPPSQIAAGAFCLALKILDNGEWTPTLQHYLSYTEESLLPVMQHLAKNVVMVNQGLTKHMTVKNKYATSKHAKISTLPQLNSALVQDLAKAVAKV
Chain of Cyclin-dependent kinase 1 (P06493 whole entry): as the sequence (P06493 whole entry) above

| SMILES | IC50 [1] [nM] | solubility (physchem) [µg/mL] | IC50 [2] [nM] | IC50 [3] [nM] | IC50 (Wee1-like protein kinase) [nM] |
| --- | --- | --- | --- | --- | --- |
| O=C1NC(=O)c2c1c(-c1ccccc1)cc1c2c2cc(O)ccc2n1CCn1ccnc1 | 27000 | – | – | – | – |
| CNCCCn1c2ccc(O)cc2c2c3c(c(-c4ccccc4Cl)cc21)C(=O)NC3=O | – | 5.2 (≈ 12 µM) | 710 | < 250 | 69 |
| N#CCCCn1c2ccc(O)cc2c2c3c(c(-c4ccccc4Cl)cc21)C(=O)NC3=O | – | – | – | – | 33 |
| O=C1NC(=O)c2c1c(-c1ccccc1)cc1c2c2cc(O)ccc2n1CCCn1ccnc1 | – | < 3 | – | – | 110 |
| O=C(O)CCCn1c2ccc(O)cc2c2c3c(c(-c4ccccc4Cl)cc21)C(=O)NC3=O | – | – | > 3400 | > 10000 | 13 |
| O=C1NC(=O)c2c1c(-c1ccccc1Cl)cc1c2c2cc(O)ccc2n1CCN1CCOCC1 | – | < 3 | 1700 | 250 | 64 |
| O=C1NC(=O)c2c1c(-c1ccccc1Cl)cc1c2c2cc(O)ccc2n1CCc1nnn[nH]1 | – | > 60 | > 3400 | 2500 | 21 |
| NC(=O)CCn1c2ccc(O)cc2c2c3c(c(-c4c(Cl)cccc4Cl)cc21)C(=O)NC3=O | – | < 3 | – | – | 330 |
| O=C1NC(=O)c2c1c(-c1c(Cl)cccc1Cl)cc1c2c2cc(O)ccc2n1CCCN1CCOCC1 | – | – | – | – | 64 |
| CN(C)CCn1c2ccc(O)cc2c2c3c(c(-c4ccccc4Cl)cc21)C(=O)NC3=O | – | 8.5 (≈ 19.6 µM) | – | – | 96 |
| O=C1NC(=O)c2c1c(-c1ccccc1Cl)cc1c2c2cc(O)ccc2n1CCCO | – | < 3 | 650 | – | – |
| CN1CCN(CCCn2c3ccc(O)cc3c3c4c(c(-c5ccccc5Cl)cc32)C(=O)NC4=O)CC1 | – | – | – | – | 82 |
| O=C(O)CCn1c2ccc(O)cc2c2c3c(c(-c4ccccc4)cc21)C(=O)NC3=O | 13000 | > 60 | – | – | – |
| O=C1NC(=O)c2c1c(-c1ccccc1Cl)cc1c2c2cc(O)ccc2n1CC(O)CO (configuration not stated) | 2500 | 12 (≈ 27.5 µM) | – | – | 23 |
| NC(=O)CCn1c2ccc(O)cc2c2c3c(c(-c4ccccc4)cc21)C(=O)NC3=O | – | < 3 | – | – | 21 |
| NC(=O)CCn1c2ccc(O)cc2c2c3c(c(-c4ccccc4Cl)cc21)C(=O)NC3=O | – | – | > 3400 | > 10000 | 6 |
| COc1ccccc1-c1cc2c(c3c1C(=O)NC3=O)c1cc(O)ccc1n2CCCO | – | < 3 | – | – | – |
| O=C1NC(=O)c2c1c(-c1ccccc1)cc1c2c2cc(O)ccc2n1CCO | – | – | – | – | 25 |
| O=C1NC(=O)c2c1c(-c1ccccc1Cl)cc1c2c2cc(O)ccc2n1CCO | – | < 3 | – | – | 45 |
| O=C(O)CCn1c2ccc(O)cc2c2c3c(c(-c4ccccc4Cl)cc21)C(=O)NC3=O | – | > 60 | – | – | – |

| SMILES | IC50 [1] [nM] | solubility (physchem) [µg/mL] | IC50 [2] [nM] | IC50 [3] [nM] | IC50 (Wee1-like protein kinase) [nM] |
| --- | --- | --- | --- | --- | --- |
| O=C1NC(=O)c2c1c(-c1c(Cl)cccc1Cl)cc1c2c2cc(O)ccc2n1CCCn1ccnc1 | – | 3.2 (≈ 6.33 µM) | – | – | 59 |
| O=C1NC(=O)c2c1c(-c1ccccc1Cl)cc1c2c2cc(O)ccc2n1CCCc1nnn[nH]1 | – | > 60 | > 3400 | > 10000 | 16 |
| CS(=O)(=O)NC(=O)CCn1c2ccc(O)cc2c2c3c(c(-c4ccccc4Cl)cc21)C(=O)NC3=O | – | > 60 | > 3400 | 250 | 12 |
| O=C1NC(=O)c2c1c(-c1ccccc1Cl)cc1c2c2cc(O)ccc2n1CCS(=O)(=O)c1nnc[nH]1 | – | 16 (≈ 30.7 µM) | – | – | 19 |
| O=C1NC(=O)c2c1c(-c1c(Cl)cccc1Cl)cc1c2c2cc(O)ccc2n1CCO | – | < 3 | – | – | – |
| O=C1NC(=O)c2c1c(-c1ccccc1Cl)cc1[nH]c3ccc(O)cc3c21 | > 50000 | – | – | – | – |
| O=C1NC(=O)c2c1c(-c1ccccc1)cc1c2c2cc(O)ccc2n1CCCN1CCOCC1 | 46000 | < 3 | – | – | 290 |
| CN(C)CCNC(=O)CCn1c2ccc(O)cc2c2c3c(c(-c4c(Cl)cccc4Cl)cc21)C(=O)NC3=O | – | > 60 | – | – | 14 |
| O=C(CCn1c2ccc(O)cc2c2c3c(c(-c4ccccc4Cl)cc21)C(=O)NC3=O)NS(=O)(=O)c1ccccc1 | – | 47 (≈ 81.9 µM) | – | – | 7 |
| O=C1NC(=O)c2c1c(-c1ccccc1)cc1c2c2cc(O)ccc2n1CCCO | – | < 3 | – | – | 200 |
| O=C1NC(=O)c2c1c(-c1c(Cl)cccc1Cl)cc1c2c2cc(O)ccc2n1CCn1ccnc1 | – | < 3 | – | – | 120 |
| COCCCn1c2ccc(O)cc2c2c3c(c(-c4ccccc4Cl)cc21)C(=O)NC3=O | – | < 3 | – | – | 27 |
| O=C1NC(=O)c2c1c(-c1ccccc1Cl)cc1c2c2cc(O)ccc2n1CCCn1ccnc1 | – | – | – | – | 54 |
| O=C1NC(=O)c2c1c(-c1ccccc1)cc1c2c2cc(O)ccc2n1CCCNc1ccccc1 | – | – | – | – | 93 |
| CN(C)CCn1c2ccc(O)cc2c2c3c(c(-c4c(Cl)cccc4Cl)cc21)C(=O)NC3=O | – | 7.4 (≈ 15.8 µM) | – | – | 170 |
| O=C1NC(=O)c2c1c(-c1c(Cl)cccc1Cl)cc1c2c2cc(O)ccc2n1CCN1CCOCC1 | – | – | – | – | 110 |
| N#CCCn1c2ccc(O)cc2c2c3c(c(-c4ccccc4Cl)cc21)C(=O)NC3=O | – | < 3 | > 3400 | < 250 | 15 |
| CN(C)CC(O)Cn1c2ccc(O)cc2c2c3c(c(-c4ccccc4Cl)cc21)C(=O)NC3=O (configuration not stated) | – | > 60 | > 3400 | 250 | 58 |
| CN1CCN(CCCn2c3ccc(O)cc3c3c4c(c(-c5ccccc5)cc32)C(=O)NC4=O)CC1 | 17000 | 28 (≈ 59.8 µM) | – | – | 300 |
| O=C1NC(=O)c2c1c(-c1ccccc1Cl)cc1c2c2cc(O)ccc2n1CCSc1nnc[nH]1 | – | 3 (≈ 6.12 µM) | – | – | 24 |

| SMILES | IC50 [1] [nM] | solubility (physchem) [µg/mL] | IC50 [2] [nM] | IC50 [3] [nM] | IC50 (Wee1-like protein kinase) [nM] |
| --- | --- | --- | --- | --- | --- |
| O=C1NC(=O)c2c1c(-c1ccccc1)cc1c2c2cc(O)ccc2n1CCN1CCOCC1 | – | 14 (≈ 31.7 µM) | – | – | 140 |
| CNCCCn1c2ccc(O)cc2c2c3c(c(-c4c(Cl)cccc4Cl)cc21)C(=O)NC3=O | – | 7.3 (≈ 15.6 µM) | – | – | 110 |
| CNCC(O)Cn1c2ccc(O)cc2c2c3c(c(-c4ccccc4Cl)cc21)C(=O)NC3=O (configuration not stated) | – | – | – | – | 57 |
| CN(C)CCCn1c2ccc(O)cc2c2c3c(c(-c4ccccc4Cl)cc21)C(=O)NC3=O | – | – | – | – | 100 |
| O=C1NC(=O)c2c1c(-c1c(Cl)cccc1Cl)cc1c2c2cc(O)ccc2n1CCCO | – | < 3 | – | – | 7 |
| O=C1NC(=O)c2c1c(-c1ccccc1Cl)cc1c2c2cc(O)ccc2n1CC[S+]([O-])c1nnc[nH]1 (configuration not stated) | – | 18 (≈ 35.6 µM) | – | – | 9 |
| CN(C)CCCn1c2ccc(O)cc2c2c3c(c(-c4c(Cl)cccc4Cl)cc21)C(=O)NC3=O | – | – | – | – | 140 |
| O=C1NC(=O)c2c1c(-c1c(Cl)cccc1Cl)cc1c2c2cc(O)ccc2n1CCCNc1ccccc1 | – | – | – | – | 67 |
| COC(=O)CCn1c2ccc(O)cc2c2c3c(c(-c4ccccc4Cl)cc21)C(=O)NC3=O | – | < 3 | – | – | 30 |
| O=C(O)CCn1c2ccc(O)cc2c2c3c(c(-c4c(Cl)cccc4Cl)cc21)C(=O)NC3=O | – | 33 (≈ 70.3 µM) | – | – | 390 |
| CN1CCN(CCCn2c3ccc(O)cc3c3c4c(c(-c5c(Cl)cccc5Cl)cc32)C(=O)NC4=O)CC1 | – | – | – | – | 62 |
| O=C1NC(=O)c2c1c(-c1ccccc1Cl)cc1c2c2cc(O)ccc2n1CCn1ccnc1 | – | – | – | – | 92 |
| CN(C)CCn1c2ccc(O)cc2c2c3c(c(-c4ccccc4)cc21)C(=O)NC3=O | 31000 | 18 (≈ 45.1 µM) | – | – | 200 |
| CN(C)CCCn1c2ccc(O)cc2c2c3c(c(-c4ccccc4)cc21)C(=O)NC3=O | 5600 | – | – | – | 360 |
| O=C1NC(=O)c2c1c(-c1ccccc1Cl)cc1c2c2cc(O)ccc2n1CCCNc1ccccc1 | – | – | – | – | 74 |
| CN(C)CCNC(=O)CCn1c2ccc(O)cc2c2c3c(c(-c4ccccc4)cc21)C(=O)NC3=O | – | > 60 | – | – | – |
| CNCCCn1c2ccc(O)cc2c2c3c(c(-c4ccccc4)cc21)C(=O)NC3=O | – | – | – | – | 280 |
| CN(C)CCNC(=O)CCn1c2ccc(O)cc2c2c3c(c(-c4ccccc4Cl)cc21)C(=O)NC3=O | – | > 60 | 1300 | < 250 | 35 |
